From PubChem BioAssay (NCI)
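Five concentrations, 48 hours, 96-well plates. TGI: concentration producing complete growth inhibition.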

What was measured:
Test in all cases: growth of human tumour cells (NCI), 48 h
NCI-H460 lung = test system: NCI-H460 lung
A498 renal = test system: A498 renal
M14 melanoma = test system: M14 melanoma
MDA-MB-435 = test system: MDA-MB-435
SF-268 CNS = test system: SF-268 CNS
TK-10 renal = test system: TK-10 renal
SN12C renal = test system: SN12C renal
HL-60(TB) leukemia = test system: HL-60(TB) leukemia
MDA-MB-231 breast = test system: MDA-MB-231 breast
HOP-62 NSCLC = test system: HOP-62 NSCLC
EKVX NSCLC = test system: EKVX NSCLC
ACHN renal = test system: ACHN renal
UO-31 renal = test system: UO-31 renal
SF-295 CNS = test system: SF-295 CNS
MOLT-4 leukemia = test system: MOLT-4 leukemia
U251 CNS = test system: U251 CNS
SNB-75 CNS = test system: SNB-75 CNS
SNB-19 CNS = test system: SNB-19 CNS
A549 NSCLC = test system: A549 NSCLC
UACC-62 melanoma = test system: UACC-62 melanoma
HCT-116 colon = test system: HCT-116 colon
T-47D breast = test system: T-47D breast
CAKI-1 renal = test system: CAKI-1 renal
BT-549 breast = test system: BT-549 breast
SK-MEL-2 melanoma = test system: SK-MEL-2 melanoma
786-0 renal = test system: 786-0 renal
COLO 205 colon = test system: COLO 205 colon
IGROV1 ovarian = test system: IGROV1 ovarian
OVCAR-8 ovarian = test system: OVCAR-8 ovarian
NCI/ADR-RES ovarian = test system: NCI/ADR-RES ovarian
NCI-H23 lung = test system: NCI-H23 lung
SK-MEL-5 melanoma = test system: SK-MEL-5 melanoma
HCT-15 colon = test system: HCT-15 colon
MCF7 breast = test system: MCF7 breast
OVCAR-4 ovarian = test system: OVCAR-4 ovarian
HCC-2998 colon = test system: HCC-2998 colon
RXF 393 renal = test system: RXF 393 renal
HT29 colon = test system: HT29 colon
SF-539 CNS = test system: SF-539 CNS
DU-145 prostate = test system: DU-145 prostate
SK-MEL-28 melanoma = test system: SK-MEL-28 melanoma
MDA-N = test system: MDA-N
SW-620 colon = test system: SW-620 colon
OVCAR-3 ovarian = test system: OVCAR-3 ovarian
SK-OV-3 ovarian = test system: SK-OV-3 ovarian
NCI-H226 lung = test system: NCI-H226 lung
LOX IMVI melanoma = test system: LOX IMVI melanoma
OVCAR-5 ovarian = test system: OVCAR-5 ovarian
UACC-257 melanoma = test system: UACC-257 melanoma
KM12 colon = test system: KM12 colon
HOP-92 NSCLC = test system: HOP-92 NSCLC
CCRF-CEM leukemia = test system: CCRF-CEM leukemia
PC-3 prostate = test system: PC-3 prostate
MALME-3M melanoma = test system: MALME-3M melanoma
RPMI-8226 leukemia = test system: RPMI-8226 leukemia
SR leukemia = test system: SR leukemia
NCI-H522 lung = test system: NCI-H522 lung

Measured: TGI

CC1=CC(=O)C[C@]2(C)[C@@H](O)CC(C(C)CO)C[C@@H]12 (stereo not given in full)
> 100 µM: NCI-H460 lung | A498 renal | M14 melanoma | MDA-MB-435 | SF-268 CNS | TK-10 renal | SN12C renal | HL-60(TB) leukemia | MDA-MB-231 breast | HOP-62 NSCLC | EKVX NSCLC | ACHN renal | UO-31 renal | SF-295 CNS | MOLT-4 leukemia | U251 CNS | SNB-75 CNS | SNB-19 CNS | A549 NSCLC | UACC-62 melanoma | HCT-116 colon | T-47D breast | CAKI-1 renal | BT-549 breast | SK-MEL-2 melanoma | 786-0 renal | COLO 205 colon | IGROV1 ovarian | OVCAR-8 ovarian | NCI/ADR-RES ovarian | NCI-H23 lung | SK-MEL-5 melanoma | HCT-15 colon | MCF7 breast | OVCAR-4 ovarian | HCC-2998 colon | RXF 393 renal | HT29 colon | SF-539 CNS | DU-145 prostate | SK-MEL-28 melanoma | MDA-N | SW-620 colon | OVCAR-3 ovarian | SK-OV-3 ovarian | NCI-H226 lung | LOX IMVI melanoma | OVCAR-5 ovarian | UACC-257 melanoma | KM12 colon | HOP-92 NSCLC

NC(N)=NS(=O)(=O)c1ccc(NC(=O)c2c3ccccc3nc3ccccc23)cc1
> 100 µM: NCI-H460 lung | A498 renal | M14 melanoma | MDA-MB-435 | SF-268 CNS | TK-10 renal | SN12C renal | MDA-MB-231 breast | HOP-62 NSCLC | EKVX NSCLC | ACHN renal | UO-31 renal | SF-295 CNS | MOLT-4 leukemia | U251 CNS | SNB-75 CNS | CCRF-CEM leukemia | SNB-19 CNS | A549 NSCLC | UACC-62 melanoma | HCT-116 colon | CAKI-1 renal | BT-549 breast | SK-MEL-2 melanoma | 786-0 renal | COLO 205 colon | IGROV1 ovarian | PC-3 prostate | OVCAR-8 ovarian | NCI/ADR-RES ovarian | NCI-H23 lung | SK-MEL-5 melanoma | HCT-15 colon | MCF7 breast | OVCAR-4 ovarian | MALME-3M melanoma | HCC-2998 colon | RPMI-8226 leukemia | HT29 colon | SF-539 CNS | DU-145 prostate | SK-MEL-28 melanoma | MDA-N | SW-620 colon | SR leukemia | OVCAR-3 ovarian | SK-OV-3 ovarian | NCI-H226 lung | LOX IMVI melanoma | OVCAR-5 ovarian | NCI-H522 lung | UACC-257 melanoma | KM12 colon | HOP-92 NSCLC
